Bridge positions count the residues as written; N and C are the ends. Ends that are not written are not given here.
What was measured:
[1] = tested on: V1R-Qpep sensor; assay: FRET measurement with GPMV-V1R-Qpep sensors; format: biochemical; conditions: bicine-mediated GPMVs, 100 nM
[2] = tested on: α1AR-Ipep sensor; conditions: bicine-mediated GPMVs, 100 μM

Compound | ΔFRET level with full agonist [1] | ΔFRET level with full agonist [2]
[Arg^8]vasopressin (CYFQNCPRG-NH2; disulfide 1-6) [[Arg^8]vasopressin (AVP), full agonist of V1R] | comparable to those obtained in the other experiments described herein | 
CNC[C@H](O)c1ccc(O)c(O)c1 [epinephrine] |  | comparable to those obtained in the other experiments described herein

— patent US12098184B2, “G protein-coupled receptor (GPCR) ligand assay” (REGENTS OF THE UNIVERSITY OF MINNESOTA, priority 2017, dated 2024)
